# Results: paper PMC9688344, “[^225Ac]Ac-SibuDAB for Targeted Alpha Therapy of Prostate Cancer: Preclinical Evaluation and Comparison with [^225Ac]Ac-PSMA-617” (Cancers, 2022)
# Values joined by “and” are separate entries in the source; they are usually repeats but may differ in a detail not shown here. Equal values may be shown once. “Also recorded” adds a separate entry of the source.
# Tested on: PSMA-positive PC-3 PIP tumor xenografts
# Experiment: Therapy study in PC-3 PIP tumor-bearing mice
# Type: in vivo, BALB/c nude mice
# Protocol: Five days after subcutaneous inoculation of four groups of mice with either PC-3 PIP or PC-3 flu tumor cells on the right shoulder (4 × 10^6 cells in 100 μL HBSS), the mice were intravenously injected with either vehicle only (saline with 0.05% BSA, n = 6 and n = 4, respectively) or with 30 kBq [^225Ac]Ac-SibuDAB (1 nmol per mouse; n = 4 per group) diluted in vehicle (Table 1).
# After tumor cell inoculation, mice bearing PC-3 PIP tumor xenografts were intravenously injected with vehicle only (n = 6) or with [^225Ac]Ac-SibuDAB or [^225Ac]Ac-PSMA-617, respectively, applied at 5 kBq or 10 kBq (1 nmol per mouse; n = 6 per group; Table 1). The control group consisted of mice from several studies (n = 12 mice) and the data from this group were published previously.
# After administration of the radioligands, the mice were monitored over 8 weeks using the same measures as previously published by Umbricht et al.. The relative body mass was defined as [BMx/BM0], where BMx is the body mass in grams at a given Day x and BM0 is the body mass in grams at Day 0. The tumor dimension was determined by measuring the longest tumor axis (L) and its perpendicular axis (W) with a digital caliper. The tumor volume (V) was calculated according to the equation [V = 0.5 × (LW^2)]. The relative tumor volume was defined as [TVx/TV0], where TVx is the tumor volume in mm^3 at a given Day x, and TV0 is the tumor volume in mm^3 at Day 0. Endpoint criteria that required euthanasia were defined as (i) body mass loss of >15%, (ii) a tumor volume of >800 mm^3, (iii) a combination of body mass loss of >10% and a tumor volume of >700 mm^3 or, (iv) signs of unease and pain or a combination thereof using a scoring system as previously reported. The median survival of mice of each group was assessed with Kaplan–Meier curves. Potential early side effects for mice that survived until study end were determined based on blood chemistry and organ-to-brain mass ratios on Day 56 by comparison to values obtained from an additional group of therapy-naïve mice (n = 4) without tumors but of the same age (Supplementary Material: Section S9).
# Table S10. Biodistribution data and tumor-to-background ratios obtained in PC3-PIP/flu tumor-bearing mice 48 h after injection of [225Ac]Ac-SibuDAB, [177Lu]Lu-SibuDAB, [225Ac]Ac-PSMA-617 or [177Lu]Lu-PSMA-617. Decay-corrected data of accumulated activity are shown as [% IA/g]-values, representing the average ± SD.
# Biodistribution data at 48 h p.i.
# 1 Data of [177Lu]Lu-PSMA-617 were previously published by Benešová et al., Mol Pharm 2018 [2]; Copyright 2018, American Chemical Society.
# Purpose: In order to determine the therapeutic efficacy of [225Ac]Ac-SibuDAB in com-parison to [225Ac]Ac-PSMA-617 as well as the 177Lu-labeled counterparts, therapy studies were conducted in PC-3 PIP xenograft-bearing BALB/c nude mice.
# Methods: The methods of the therapy study to assess the therapeutic efficacy of [225Ac]Ac-SibuDAB are reported in the main manuscript. An additional group of mice was treated with 10 MBq (1 nmol) [177Lu]Lu-SibuDAB under the same experimental condi-tions. Data previously acquired by our group for mice treated with 5 MBq [177Lu]Lu-SibuDAB were published by Borgna & Deberle et al. and data of mice treated with 5 MBq or 10 MBq [177Lu]Lu-PSMA-617 were previously published by Tschan et al. and Umbricht et al., respectively.
# Results: The assessment of the PSMA-specific therapeutic effect of [225Ac]Ac-SibuDAB as well as the comparison to [225Ac]Ac-PSMA-617 are described in the main ar-ticle. The body mass of effectively treated mice, in which the tumor disappeared entirely […]
# tumor-bearing mice that were treated with only vehicle as well as for some mice that were treated with 5 kBq or 10 kBq [225Ac]Ac-PSMA-617 and experienced a relapse in tumor
SMILES,Day of first endpoint (5 kBq),Day of last endpoint (5 kBq),Median Survival (5 kBq),Number of Mice Alive on Day 56 (5 kBq),Tumor response (5 kBq),Day of first endpoint (10 kBq),Day of last endpoint (10 kBq),Median Survival (10 kBq),Number of Mice Alive on Day 56 (10 kBq),"Tumor response (5 kBq, listed as [225Ac]Ac-SibuDAB)",Tumor response (10 kBq),"Tumor response (10 kBq, listed as [225Ac]Ac-SibuDAB)",Day of first endpoint (30 kBq),Day of last endpoint (30 kBq),Median Survival (30 kBq),Number of Mice Alive on Day 56 (30 kBq),Tumor response (30 kBq),"Tumor response (30 kBq, listed as [225Ac]Ac-SibuDAB)"
O=C([O-])CN1CCN(CC(=O)[O-])CCN(CC(=O)NCC2CCC(C(=O)NC(Cc3ccc4ccccc4c3)C(=O)NCCCCC(NC(=O)NC(CCC(=O)O)C(=O)O)C(=O)O)CC2)CCN(CC(=O)[O-])CC1.[225Ac+3] (stereo not drawn) [[^225Ac]Ac-PSMA-617],42,56,46 days,one out of six and 1/6,tumor regrowth was observed,38,56,>56 ^3 days,four out of six and 4/6,–,–,–,–,–,–,–,–,–
CC(C)Cc1ccc(C(C)C(=O)NC(CCN)C(=O)NCCCCC(NC(=O)CN2CCN(CC(=O)[O-])CCN(CC(=O)[O-])CCN(CC(=O)[O-])CC2)C(=O)NCC2CCC(C(=O)NC(Cc3ccc4ccccc4c3)C(=O)NCCCCC(NC(=O)NC(CCC(=O)O)C(=O)O)C(=O)O)CC2)cc1.[225Ac+3] (stereo not drawn) [[^225Ac]Ac-SibuDAB],56 ^2,56 ^2,>56 ^3 days,6/6,sufficient to eradicate the tumors; also recorded: effectively eradicated tumors of all mice; also recorded: no tumors were visible at Day 56,56 ^2,56 ^2,>56 ^3 days,6/6,no tumors were visible 56 days after; also recorded: no tumor visible on Day 56,effectively eradicated tumors of all mice,no tumor visible on Day 56,56 ^2,56 ^2,>56 ^3 days,4/4,eradicated PSMA-positive PC-3 PIP tumors entirely,no tumor visible on Day 56
